Experimental findings from patent publication US6432671B1 (priority 1996, dated 2002) are described below.

This assay has as its system tryparedoxin I. It is filed as biochemical, Crithidia fasciculata.

For `CCN1C(=O)C=CC1=O` [NEM, N-ethylmaleimide], the “residual activity [%]” value is reported as 24 ± 5%.
